From US9119780B2, “Triggerable compositions for two-stage, controlled release of proactive chemistry” (Kimberly-Clark Worldwide, Inc., priority 2013, dated 2015)

Details: exposure to liquid water under ambient conditions
Source text: The relative hydrophobicity and hydrophilicity of the R groups can be easily adjusted to tailor the hydrolysis rate upon exposure to aqueous medium, and therefore the release rate of the active R*OH.

Row | SMILES | hydrolysis rate
1 | CC1CCC(C(C)C)C(OC(=O)c2ccc[n+](C)c2)C1.[Cl-] (centres unmarked) | hydrolyzed rapidly
2 | Cc1ccc(C(C)C)c(OC(=O)c2ccc[n+](C)c2)c1.[Cl-] | hydrolyzed rapidly
